The record followed here is ChEMBL document CHEMBL4619726, “Synthesis of novel tryptanthrin derivatives as dual inhibitors of indoleamine 2,3-dioxygenase 1 and tryptophan 2,3-dioxygenase” (Bioorg Med Chem Lett, 2020).

The target in data set [1] is T1, Indoleamine 2,3-dioxygenase 1 (Homo sapiens, UniProt P14902). In words: Inhibition of IDO1 (unknown origin).
Data set [2] addresses T2, Tryptophan 2,3-dioxygenase (Homo sapiens, UniProt P48775). Briefly: Inhibition of recombinant human TDO expressed in Escherichia coli BL21 using L-Trp as substrate incubated for 30 mins by enzymatic assay.
Target sequence in this assay (P48775 whole entry): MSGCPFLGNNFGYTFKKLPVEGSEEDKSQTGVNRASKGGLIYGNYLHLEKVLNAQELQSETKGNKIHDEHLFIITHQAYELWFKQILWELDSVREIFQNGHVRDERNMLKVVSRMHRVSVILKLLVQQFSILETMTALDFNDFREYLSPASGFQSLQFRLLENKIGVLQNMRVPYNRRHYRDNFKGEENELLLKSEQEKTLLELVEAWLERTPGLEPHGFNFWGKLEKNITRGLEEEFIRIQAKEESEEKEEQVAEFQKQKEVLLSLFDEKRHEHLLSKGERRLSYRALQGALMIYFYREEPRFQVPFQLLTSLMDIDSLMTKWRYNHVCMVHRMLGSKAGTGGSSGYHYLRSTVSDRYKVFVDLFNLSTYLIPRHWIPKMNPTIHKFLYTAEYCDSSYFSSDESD
Data set [3] addresses T1, Indoleamine 2,3-dioxygenase 1. In words: Inhibition of IDO1 in human HeLa cells. In kind it is cell-based.
Data set [4] can be described thus: Solubility of compound in water. In kind it is physicochemical.
Data set [5] has as its target T2, Tryptophan 2,3-dioxygenase. Briefly: Potency index, ratio of IC50 of 8-fluorotryptanthrin to IC50 of compound for inhibition of TDO (unknown origin).
Target sequence in this assay (P48775 whole entry, looked up): as the sequence (P48775 whole entry) above
Data set [6] deals with T2, Tryptophan 2,3-dioxygenase. Briefly: Potency index, ratio of IC50 of LM10 to IC50 of compound for inhibition of TDO (unknown origin).
Target sequence in this assay (P48775 whole entry, looked up): as the sequence (P48775 whole entry) above

≈ marks a conversion by molar mass, not a printed value.

T1 sequence (P14902 whole entry): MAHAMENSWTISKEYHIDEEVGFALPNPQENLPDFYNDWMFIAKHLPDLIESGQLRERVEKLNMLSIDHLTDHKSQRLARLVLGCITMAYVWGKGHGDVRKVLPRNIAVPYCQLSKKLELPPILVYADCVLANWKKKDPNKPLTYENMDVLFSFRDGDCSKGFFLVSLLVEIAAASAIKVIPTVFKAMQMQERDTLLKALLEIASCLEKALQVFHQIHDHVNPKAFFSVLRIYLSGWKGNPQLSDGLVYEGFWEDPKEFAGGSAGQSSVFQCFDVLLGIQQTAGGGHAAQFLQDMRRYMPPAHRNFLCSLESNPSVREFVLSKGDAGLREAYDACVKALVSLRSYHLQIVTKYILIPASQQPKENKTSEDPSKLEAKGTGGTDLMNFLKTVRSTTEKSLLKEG

The term IC50 denotes the concentration needed to halve the response being measured. As a reminder, the solubility is how much of the substance goes into solution per volume. With `CC1(C)OB(c2ccc3nc4n(c(=O)c3c2)-c2ccc(F)cc2C4=O)OC1(C)C`, the IC50 in data set [1] turned out to be 13.1 µM; in data set [2], 6.02 µM; in data set [3], 0.75 µM. Further, the solubility in data set [4] amounted to 0.625 µg/mL (≈ 1.59 µM).

Regarding `COC(=O)C1CCN(Cc2ccc3nc4n(c(=O)c3c2)-c2ccc(F)cc2C4=O)CC1`, the IC50 is 1.2 µM in data set [1], 0.99 µM in data set [2] and 0.15 µM in data set [3]. Moreover, the solubility in data set [4] amounted to 1.05 µg/mL (≈ 2.5 µM).

In data set [4], `O=C1c2cc(F)ccc2-n2c1nc1ccccc1c2=O` returned a solubility of 0.741 µg/mL (≈ 2.78 µM).

For the compound `COC(=O)C1CCCN(Cc2ccc3nc4n(c(=O)c3c2)-c2ccc(F)cc2C4=O)C1` (stereo not drawn), the 50% inhibitory concentration (IC50) in data set [1] stood at 1.43 µM; in data set [2] it was 2.87 µM; in data set [3] it was 0.37 µM. The solubility in data set [4] turned out to be 1.09 µg/mL (≈ 2.58 µM).

On to `O=C1c2cc(F)ccc2-n2c1nc1ccc(Cn3ccnn3)cc1c2=O`, for which the IC50 in data set [1] is 0.78 µM; in data set [2] it was 1.13 µM; in data set [3], 0.08 µM. This compound gave a solubility in data set [4] of 1.28 µg/mL (≈ 3.69 µM).

For `O=Cc1ccc2nc3n(c(=O)c2c1)-c1ccc(F)cc1C3=O`, the values for the IC50 in data set [1], in data set [2] and in data set [3] were 0.46 µM, 0.06 µM and 0.16 µM, respectively. In addition, the values for the Ratio IC50 in data set [5] and in data set [6] were 16 and 193, respectively. This compound also gave a solubility in data set [4] of 0.862 µg/mL (≈ 2.93 µM).

For `O=C(O)/C=C/c1ccc2nc3n(c(=O)c2c1)-c1ccc(F)cc1C3=O`, the IC50 came out at 0.12 µM in data set [1], 0.03 µM in data set [2] and 0.06 µM in data set [3]. For the same compound, the results for the Ratio IC50 in data set [5] and in data set [6] were 32 and 386, respectively. In data set [4], the solubility is 1.12 µg/mL (≈ 3.34 µM).

For the compound `O=C1c2cc(F)ccc2-n2c1nc1ccc(CN3CCC(C(=O)O)CC3)cc1c2=O`, the IC50 worked out at 0.48 µM in data set [1], 0.45 µM in data set [2] and 3.1 µM in data set [3]. This compound also returned a solubility in data set [4] of 16.7 µg/mL (≈ 40.9 µM).

Turning to `O=C1c2cc(F)ccc2-n2c1nc1ccc(CN3CCCC(C(=O)O)C3)cc1c2=O` (stereo not drawn), the figures for the IC50 in data set [1], in data set [2] and in data set [3] were 0.57 µM, 0.42 µM and 1.84 µM, respectively. Besides, the solubility in data set [4] was determined as 14.3 µg/mL (≈ 35.1 µM).

As for `O=C1c2cc(F)ccc2-n2c1nc1ccc(B(O)O)cc1c2=O`, the IC50 was determined as 1.79 µM in data set [1], 1.21 µM in data set [2] and 0.23 µM in data set [3]. For the same compound, the solubility in data set [4] is 0.69 µg/mL (≈ 2.23 µM).

For `O=C1c2cc(F)ccc2-n2c1nc1ccc(CN3CCCC3C(=O)O)cc1c2=O` (stereo not drawn), the IC50 in data set [1] came out at 0.55 µM; in data set [2] it was 0.18 µM; in data set [3] it was 3.76 µM. Moreover, in data set [4], the solubility stood at 15.4 µg/mL (≈ 39.1 µM).

With `CCOC(=O)/C=C/c1ccc2nc3n(c(=O)c2c1)-c1ccc(F)cc1C3=O`, the figures for the IC50 in data set [1], in data set [2] and in data set [3] were 0.19 µM, 0.37 µM and 0.02 µM, respectively. The solubility in data set [4] was 0.735 µg/mL (≈ 2.02 µM).

In the case of `COC(=O)C1CCCN1Cc1ccc2nc3n(c(=O)c2c1)-c1ccc(F)cc1C3=O` (stereo not drawn), the concentration for half-maximal inhibition (IC50) came out at 0.46 µM in data set [1], 0.3 µM in data set [2] and 0.7 µM in data set [3]. The compound further came in with a solubility in data set [4] of 0.893 µg/mL (≈ 2.19 µM).
